Values quoted from earlier work as cited in US20170042798A1, “USE OF BIDENS EXTRACT TO REDUCE SIGNS OF SKIN AGING” (KIMBERLY-CLARK WORLDWIDE ,INC., priority 2014, published 2017).

Tested on: 3T3-L1 cells
Settings: literature, Nutr. Res. 32(6): 439-447

Fucoidan
adipogenesis: inhibit adipogenesis
